Test results from patent US5698547A, “Cephalosporin antibiotics” (Microcide Pharmaceuticals, Inc., priority 1995, dated 1997).
Converted amounts (≈) assume the structure as drawn. Counter-ions that a name gives are not always drawn.

System: S. aureus Col (Meth^R) (lac^-)
Experiment: MIC by agar dilution, S. aureus Col (Meth^R) (lac^-)
Format: cell-based
Conditions: Staphylococcus aureus; agar dilution; S. aureus Col (Meth^R) (lac^-); read-out: MIC
Method: The compounds of the invention were evaluated against several β-lactamresistant bacteria strains by determining the minimum inhibitory concentration (MIC, μg/ml) of each compound with respect to each strain. The MIC, the lowest concentration of antibiotic which inhibits growth of the test organism, was determined by the agar dilution method.
To determine the MIC for bacterial isolates, the test compound was incorporated in a series of two-fold dilutions into liquified Mueller-Hinton agar. Upon solidification, a number of different bacterial strains were spot inoculated with a replicating device onto the agar surface. […] The procedures used in these studies have been standardized by the National Committee for Clinical Laboratory Standards (NCCLS), as per the NCCLS publication entitled METHODS FOR DILUTION ANTIMICROBIAL SUSCEPTIBILITY TESTS (1991), which is incorporated herein by reference.
Aliquots of antimicrobial agents were prepared in phosphate buffered saline (PBS) at pH 7.2. Tween 20 or DMSO was used as a solubilizing vehicle as needed. Standard methods of vortexing, sonicating and gentle heat were used to facilitate solubilizing the test agent. Typically, the concentration of the stock solution was 10× that of the highest drug concentration tested. A 1.28 mg/mL stock solution was used with a subsequent highest working concentration of 128 μg/mL. Serial two-fold dilutions were done through ≤0.25 μg/mL. Each drug level was tested in duplicate. Two-fold drug dilutions were done in sterile 50 mL tubes with a final drug volume of 5 mL. Upon the addition of 45 mL of molten agar, a 10-fold dilution resulted. Two, 25 mL. plates were then poured into 15×150 mm square Petri plates with grids and allowed to harden.
A control plate with a reference drug, either cefotaxime, vancomycin or imipenem, was used as the positive growth control. Stock concentrations of reference antibiotics were prepared and frozen at -80° C. Upon preparation, the control plates were sealed and stored in the refrigerator for up to 1 week prior to use; however, imipenem control plates had to be prepared just prior to use. All test plates were used within 24 hours of preparation.
Satisfactory results were obtained where the inoculum contained about 10^4 colony forming units (cfu) ±0.5 logs. Starting with pure cultures of the test isolates on agar plates, a few isolated colonies were transferred to a tube of nutrient broth and allowed to grow 4-6 hours at 35°-36° C. to reach log-phase growth. Dropwise addition of the broth culture to PBS was done to match a 0.5 McFarland turbidity standard equal to 10^8 cfu/mL. This was further diluted ten-fold in PBS to reach a working inoculum concentration of 10^7 cfu/mL. When 1 μL of the working inoculum was applied to the agar surface a concentration of about 10^4 cfu per spot was obtained.
Disposable sterile 1 μL loops were used to inoculate test plates, with each isolate in a designated grid on the agar plate. An alternate method of inoculation involved the use of a replica plater, a device with 48 steel pins allowing the simultaneous inoculation of multiple isolates. After the spots had dried, the plates were incubated at 35°-36° C. for 16-20 hours. Endpoints were assessed as the minimum inhibitory concentration (MIC) of antimicrobial agent.
The novel agents of this invention are notable for their enhanced activity against S. aureus Col and Enterococci (E. faecium and E. faecalis). The S. aureus Col strain is a high-level PBP2a producer, whereas S. aureus Col 8A, its isogenic partner, lacks PBP2a. […] Thus, the compounds of the present invention are effective against PBP2a-producing bacteria.

SMILES	MIC [µg/mL]
O=C(Cc1ccccc1)N[C@@H]1C(=O)N2C(C(=O)O)=C(Sc3cccc4c3CCCC4)CS[C@H]12 [Cmpd 56, (7R)-7-[(Phenylacetyl)amino]-3-(5,6,7,8-tetrahydronaphthalen-1-ylthio)-3-cephem-4-carboxylic acid]	1 (≈ 2.08 µM)
O=C(Cc1ccccc1)N[C@@H]1C(=O)N2C(C(=O)O)=C(Sc3ccc4ccccc4c3Br)CS[C@H]12 [Cmpd 57, (7R)-7-[(Phenylacetyl)amino]-3-(1-bromo-naphthalen-2-ylthio)-3-cephem-4-carboxylic acid]	0.5 (≈ 0.9 µM)
O=C(Cc1ccccc1)N[C@@H]1C(=O)N2C(C(=O)O)=C(Sc3ccc(CSC4=NCCN4)cc3I)CS[C@H]12 [Cmpd 59, (7R)-7-[(Phenylacetyl)amino]-3-(4-(2-imidazolin-2-ylthiomethyl)-2-iodophenylthio)-3-cephem-4-carboxylic acid]	2 (≈ 3 µM)
N=C(N)NC(=N)SCc1ccc(SC2=C(C(=O)O)N3C(=O)[C@@H](NC(=O)Cc4ccccc4)[C@H]3SC2)c(I)c1 [Cmpd 60, (7R)-7-[(Phenylacetyl)amino]-3-(4-(N-amidino)isothiouroniummethyl-2-iodophenylthio)-3-cephem-4-carboxylate, inner salt]	0.5
N=C(NCCN1CCOCC1)SCc1ccc(SC2=C(C(=O)O)N3C(=O)[C@@H](NC(=O)Cc4ccccc4)[C@H]3SC2)c(I)c1 [Cmpd 61, (7R)-7-[(Phenylacetyl)amino]-3-(4-(N-morpholinoethyl)isothiouroniummethyl-2-iodophenylthio)-3-cephem-4-carboxylate, inner salt]	4
CN(C)C(SCc1ccc(SC2=C(C(=O)[O-])N3C(=O)[C@@H](NC(=O)Cc4ccccc4)[C@H]3SC2)c(I)c1)=[N+](C)C [Cmpd 62, (7R)-7-[(Phenylacetyl)amino]-3-(4-tetramethylisothiouroniummethyl-2-iodophenylthio)-3-cephem-4-carboxylate, inner salt]	4
N=C(N)SCc1ccc(SC2=C(C(=O)O)N3C(=O)[C@@H](NC(=O)Cc4ccccc4)[C@H]3SC2)cc1 [Cmpd 63, (7R)-7-[(Phenylacetyl)amino]-3-(4-isothiouroniummethylphenylthio)-3-cephem-4-carboxylate, inner salt]	4
N=C(N)SCc1ccccc1SC1=C(C(=O)O)N2C(=O)[C@@H](NC(=O)Cc3ccccc3)[C@H]2SC1 [Cmpd 64, (7R)-7-[(Phenylacetyl)amino]-3-(2-isothiouroniummethylphenylthio)-3-cephem-4-carboxylate, inner salt]	0.5
O=C(Cc1ccccc1)N[C@@H]1C(=O)N2C(C(=O)O)=C(Sc3ccc(CSc4ncn[nH]4)cc3)CS[C@H]12 [Cmpd 65, (7R)-7-[(Phenylacetyl)amino]-3-(4-(1,2,4-triazol-5-ylthiomethyl)phenylthio)-3-cephem-4-carboxylic acid]	8 (≈ 14.8 µM)
N#CCC(=O)N[C@@H]1C(=O)N2C(C(=O)O)=C(Sc3ccc(CSC(=N)N)cc3I)CS[C@H]12 [Cmpd 66, (7R)-7-[(Cyanoacetyl)amino]-3-(4-isothiouroniummethyl-2-iodophenylthio)-3-cephem-4-carboxylate, inner salt]	2
O=C(Cc1ccccc1)N[C@@H]1C(=O)N2C(C(=O)O)=C(Sc3ccccc3CSc3ncn[nH]3)CS[C@H]12 [Cmpd 67, (7R)-7-[(Phenylacetyl)amino]-3-(2-(1,2,4-triazol-5-ylthiomethyl)phenylthio)-3-cephem-4-carboxylic acid]	4 (≈ 7.41 µM)
O=C1CNC(SCc2ccccc2SC2=C(C(=O)O)N3C(=O)[C@@H](NC(=O)Cc4ccccc4)[C@H]3SC2)=N1 [Cmpd 68]	8 (≈ 14.4 µM)
CN(C)C(SCc1ccccc1SC1=C(C(=O)[O-])N2C(=O)[C@@H](NC(=O)Cc3ccccc3)[C@H]2SC1)=[N+](C)C [Cmpd 69, (7R)-7-[(Phenylacetyl)amino]-3-(2-tetramethylisothiouroniummethylphenylthio)-3-cephem-4-carboxylate, inner salt]	4
O=C(Cc1ccccc1)N[C@@H]1C(=O)N2C(C(=O)O)=C(Sc3ccccc3CSc3ccncc3)CS[C@H]12 [Cmpd 70]	4 (≈ 7.28 µM)
